The results in this text go back to US20190112357A1, “PREVENTION OF PROTEIN DISULFIDE BOND REDUCTION” (MedImmune, LLC, priority 2016, published 2019).

Series [1] deals with GR purified from a day 14 culture of cell line B. Description: DTNB reductase activity of 2'5'-ADP column fractions from cell line B, GR. Format: biochemical, Chinese Hamster. To be noted: 100 μM 2-AAPA, fractions B1-C2, depending on the fraction. The protocol:
Reductases were purified from cell samples to verify the specificity of reductase inhibitors. A day 14 culture of mAb B (IgG antibody produced by CHO cell line B CHO-K1SV) was pelleted by centrifugation, washed once with PBS and re-suspended in 50 mM tris buffer, pH 7.5. The solution was homogenized and filtered at 0.2 μm prior to loading onto a column of 2′5′-ADP Sepharose 4B resin. The reductases were eluted using a linearly increasing gradient of 0 to 0.3 mM NADP^+ in the same tris buffer (Yadav, et al., Parasitol. Int., 62:193-198, 2013). The reductase activity of the collected fractions was determined using the assay described in Example 3. Additionally, western blot analysis was used to detect TrxR1 and GR in the collected fractions.
The reductase-specific inhibitors were evaluated above using purified recombinant mammalian enzymes from rat and human. […] The added activity from the two systems was approximately equal to the total activity detected in the absence of an inhibitor for each fraction. […] That is, if the reductase inhibitors were non-specifically inhibiting both enzymatic systems, the added reductase activity would have been […] than the reductase activity detected without any added inhibitor. […] The fractions with reductase activity were pooled and further evaluated at the inhibitor concentrations assayed in the antibody reduction assay.

The target of series [2] is T1, recombinant mammalian GR/GSSG (Homo sapiens, UniProt P00390).
T1 construct: purchased Abcam
T1 sequence (P00390 44-522): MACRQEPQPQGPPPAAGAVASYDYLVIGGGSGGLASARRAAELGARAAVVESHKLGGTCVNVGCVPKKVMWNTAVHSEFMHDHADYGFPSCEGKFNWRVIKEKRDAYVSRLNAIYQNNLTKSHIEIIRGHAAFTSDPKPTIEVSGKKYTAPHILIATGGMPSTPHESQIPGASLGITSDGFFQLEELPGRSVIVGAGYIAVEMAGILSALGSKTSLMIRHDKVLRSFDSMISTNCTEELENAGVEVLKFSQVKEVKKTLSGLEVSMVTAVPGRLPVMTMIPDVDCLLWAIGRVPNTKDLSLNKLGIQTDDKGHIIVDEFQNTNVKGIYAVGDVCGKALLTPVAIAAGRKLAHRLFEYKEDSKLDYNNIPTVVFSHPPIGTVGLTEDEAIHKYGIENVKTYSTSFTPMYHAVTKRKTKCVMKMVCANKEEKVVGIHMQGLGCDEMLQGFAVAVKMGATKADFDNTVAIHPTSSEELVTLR
Kind of series: Reduction of purified mAb B by recombinant GR/GSSG, capillary electrophoresis. The class given is biochemical. Here is the method:
(§1) Antibody reduction in cell culture supernatant samples was measured by detecting the presence of reduced species via capillary electrophoresis using standard procedures on a 2100 Bioanalyzer system (Agilent Technologies, Santa Clara, Calif.). Samples were diluted 1-6 fold depending on titer and analyzed under non-reducing conditions following 2100 Bioanalyzer standard protocols. Supernatant samples from 3 L bioreactors were stored frozen until all samples had been acquired and were ready for analysis. Samples were thawed on ice and analyzed immediately to evaluate the amount of reduced antibody in the reactor on each day of the run.
Using the same approach with recombinant mammalian enzymes, the glutathione system was evaluated by spiking mAb B into five solutions containing: 1) no enzyme, 2) 1 mM GSSG (oxidized glutathione), 3) 0.2 μM GR (glutathione reductase), 4) 0.2 μM GR with 1 mM GSSG, and 5) 0.02 μM GR with 1 mM GSSG. […] The results indicated a minimal mAb B reduction in the solutions containing GSSG alone. This is the result of an impurity in the GSSG. […] was reduced in the solutions containing both GR and GSSG.
(§2) To confirm that the activity from a particular reductase system can translate into reduced antibody, a second method was developed to determine the impact of each reductase system on antibody reduction. The principle of the reduction assay is similar to the reductase activity assay described above. The percent of protein reduction without an inhibitor was compared to the percent of protein reduction in the presence of specific inhibitors for GR or TrxR1. In this assay, purified mAb B was spiked into solutions containing recombinant mammalian TrxR1/Trx1 or recombinant mammalian GR/GSSG and stored in an oxygen-free environment overnight. The percent of reduced mAb B antibody was evaluated using capillary electrophoresis, as set forth above.

Another series deals with T2, recombinant TrxR1/Trx1 (Rattus norvegicus, UniProt O89049).
T2 sequence (O89049 1-499): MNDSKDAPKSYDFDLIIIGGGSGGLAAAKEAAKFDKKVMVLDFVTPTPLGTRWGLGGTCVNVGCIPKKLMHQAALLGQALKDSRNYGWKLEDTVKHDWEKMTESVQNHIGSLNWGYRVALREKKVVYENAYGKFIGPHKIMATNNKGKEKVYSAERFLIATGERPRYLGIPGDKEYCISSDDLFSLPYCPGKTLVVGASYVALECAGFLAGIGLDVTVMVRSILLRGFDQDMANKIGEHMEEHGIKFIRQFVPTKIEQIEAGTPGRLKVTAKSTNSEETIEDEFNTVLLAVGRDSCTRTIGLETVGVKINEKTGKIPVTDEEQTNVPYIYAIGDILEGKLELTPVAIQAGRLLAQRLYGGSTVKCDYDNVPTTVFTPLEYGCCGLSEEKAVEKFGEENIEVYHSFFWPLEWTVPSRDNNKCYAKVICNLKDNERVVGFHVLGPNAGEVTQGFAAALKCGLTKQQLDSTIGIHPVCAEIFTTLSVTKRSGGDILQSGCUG
Description: DTNB reductase activity assay, recombinant TrxR1/Trx1. To be noted: 2-AAPA 10 μM to 200 μM.

The next series deals with glutathione system. Description: Reductase activity assay, day 14 culture samples, glutathione system. To be noted: day 14, 100 μM 2-AAPA. Format: biochemical, Chinese Hamster. Here is the method:
The total reductase activity was determined in the absence of any inhibitor. […] Thus, the difference in activity between a sample with ATG, and a sample without any inhibitor, indicates the amount of reductase activity contributed the thioredoxin system. […] Thus, the difference in reductase activity between a sample with 2-AAPA, and a sample without any inhibitor, indicates the amount of reductase activity contributed by the glutathione system. Although ATG and 2-AAPA are provided as exemplary specific inhibitors, other specific inhibitors discussed above can be employed in this assay instead of ATG and 2-AAPA.
(§3) Briefly, culture samples were thawed on ice. […] The samples were then allowed to incubate 5 minutes.
(§4) Activity of the reductases was calculated as follows. […] The activity was then calculated by the following equation: […]
The reductase activities of the thioredoxin and glutathione systems were evaluated in day 14 culture samples of the same CHO cell lines A, B, C, and D, using the previously evaluated specific inhibitors 2-AAPA and ATG at 100 μM and 0.5 μM respectively. Data in FIG. 6A were normalized to viable cell density. Cell lines A, B, and C were described in Example 6, above. Cell line D is the cell line CHO CAT-S, and is stably transfected to produce an IgG1 mAb (mAb D).

In another series the target is T3, GR/GSSG (Homo sapiens, UniProt P00390).
T3 construct: purchased Abcam
T3 sequence (P00390 44-522): T1 sequence (P00390 44-522)
Description: DTNB reductase activity assay, recombinant GR/GSSG. The class given is biochemical. To be noted: 2-AAPA at 100 μM and higher. The protocol:
as §3, §4

In series [3] the test system is GR isolated from CHO cell culture. Kind of series: mAb B reduction by pooled CHO fractions with NADPH and GSSG. Format: biochemical, Chinese Hamster. To be noted: 3 μM Cu^2+ or 100 μM ATG, overnight room temperature. The protocol: (§5) Purified mAb B was spiked into several solutions containing different combinations of the pooled fractions (PF), recombinant Trx1, GSSG, NADPH, ATG, and Cu^2+. The solutions were incubated at room temperature overnight and the amount of intact antibody remaining was determined by capillary electrophoresis according to the protocol described above. In the first set of samples, purified mAb B was spiked into the pooled fractions with, and without, NADPH.
In the second set of samples, purified mAb B was spiked into solutions containing the pooled enzymes, NADPH, GSSG, and either no inhibitor, 3 μM Cu^2+, or 100 μM ATG. […] This solution contained GR, GSSG, and NADPH, which are needed for the glutathione system.

Series [4] concerns the target T4, recombinant mammalian TrxR1/Trx1 (Rattus norvegicus, UniProt O89049).
T4 construct: purchased Cayman Chemical (TrxR1); Abcam (Trx1)
T4 sequence (O89049 1-499): T2 sequence (O89049 1-499)
Description: Reduction of purified mAb B by recombinant TrxR1/Trx1, capillary electrophoresis. The class given is biochemical, human (Trx1). Here is the method: as §1
The role of each enzymatic system in antibody reduction was evaluated by determining the conditions under which these reductase systems cause antibody reduction. Using purified recombinant mammalian reductases, the thioredoxin system was evaluated by spiking purified mAb B into five solutions containing: 1) no enzymes, 2) 1 μM TrxR1, 3) 0.1 μM TrxR1, 4) […], and 5) 0.1 μM TrxR1+2.5 μM Trx1. All samples contained 0.4 mM NADPH and were stored at room temperature overnight. Digital gel-like images were obtained from microchip-based capillary electrophoresis analysis.
as §2

The subject of series [5] is TrxR1 purified from CHO cell cultures. Description: mAb B reduction by pooled CHO fractions with NADPH and Trx1. Format: biochemical, Chinese Hamster. To be noted: 3 μM Cu^2+ or 100 μM ATG, overnight room temperature. The protocol:
as §5
The third set of solutions contained the pooled enzymes, NADPH, Trx1, and either no inhibitor, 3 μM Cu^2+, or 100 μM ATG. […] In the final sample as a control, mAb B was spiked into a solution containing NADPH, Trx1, and GSSG.

The nature of series [6]: Antibody aggregation analysis (HP-SEC). To be noted: EDTA 9.5, 19, 38 mM or Cystine 4 and 8 mM. The class given is physicochemical. Here is the method:
The percent of antibody aggregates was determined using standard size exclusion chromatography (HP-SEC) methods. An Agilent 1200 series system was used with a Tosoh Bioscience TSKgel G3000SW XL column (Tosoh Bioscience LLC, King of Prussia, Pa.) (7.8 mm×300 mm) at 1 mL/min flow rate using a mobile phase buffer of 0.1 M sodium phosphate, 0.1 M sodium sulfate, pH 6.8. The absorbance chromatography at 280 nm was used to quantify the results.

A short description of series [7]: Antibody reduction potential assay (Vacuum/GX). The class given is physicochemical. To be noted: EDTA 9.5, 19, 38 mM or Cystine 4 and 8 mM. Here is the method: Bioreactor samples (1 mL) were obtained daily and centrifuged at 3000-4000 RPM and the supernatant was frozen immediately at −80° C. On the day prior to the assay, the samples were removed from −80° C. storage, thawed, and placed in a vacuum chamber at room temperature overnight to induce reduction of the monoclonal antibody without the interference of oxygen. After the vacuum hold, the samples were analyzed for protein fragmentation under non-reducing conditions using a BioAnalyzer system (Agilent Technologies) or a LABCHIP® GXII system (PerkinElmer) to detect antibody fragments resulting from the breakage of the antibody's interchain disulfide bonds. […]
Samples were stored frozen until analyzed. […] After being denatured and the free thiols being capped by NEM, the samples were analyzed using a Perkin Elmer Labchip® GXII (Perkin Elmer, Waltham, Mass.) to perform size fractionation and quantification. Using the Labchip® GXII, the protein and fragments were detected by laser-induced fluorescence and translated into gel-like images (bands) and electropherograms (peaks).
Reduction potential, i.e. the potential of the molecule to be reduced under anaerobic condition, was measured by subjecting samples to vacuum analysis as described above followed addition of non-reducing sample buffer. […]

The structures appear in SMILES notation.

On to `CC(=O)NC(CSC(=S)Nc1ccc(NC(=S)SCC(NC(C)=O)C(=O)O)cc1)C(=O)O` (stereo not shown) [2-AAPA, 2-Acetylamino-3-[4-(2-acetylamino-2-carboxyethylsulfanylthiocarbonyl-amino)phenylthiocarbamoylsulfanyl]propionic acid], for which the “share of reductase activity from glutathione reductase, determined with the inhibitor” value in series [1] is 25-40%. Moreover, in [2] (same method as for ATG), the “behaviour of 2-AAPA in the antibody reduction assay” value is “directly caused antibody reduction”. For the same compound, the “effect on the reductase activity of TrxR1/Trx1 solutions” value on recombinant TrxR1/Trx1 is listed as “minimal effect”. The “share of total reductase activity caused by the glutathione system” value is on record as 70% with glutathione system (cell line A), 45% in the series with glutathione system (cell line B), 5% in the series on glutathione system (cell line C) and 45% with glutathione system (cell line D). The GR/GSSG activity result on GR/GSSG was “completely inhibiting”.

As for `O=S(=O)([O-])[O-].[Cu+2]` [Cu^2+, copper (II) sulfate], in [2] (3 μM Cu^2+), the “antibody reduction caused by GR/GSSG” value is on record as “almost completely inhibited”. For the same compound, the “antibody reduction in samples containing GR/GSSG” value in series [2] (Cu^2+ 3-100 μM) is “prevented antibody reduction”. Besides, in series [3], the “antibody reduction in pooled enzymes, NADPH, GSSG” value is “completely inhibited all antibody reduction”. In addition, the “intact antibody remaining in the TrxR1/Trx1 sample” value in [4] (3 μM Cu^2+) was found to be 20%. In addition, the “antibody reduction from the thioredoxin system” value in series [4] (Cu^2+ 3-100 μM) is listed as “only partially inhibited”. For the same compound, the “antibody reduction in pooled enzymes, NADPH, Trx1” value in series [5] is “marginally prevented antibody reduction”.

As for `O=C(O)CN(CCN(CC(=O)O)CC(=O)O)CC(=O)O` [EDTA, ethylenediamine tetraacetic acid], the “aggregation of sheared mAb E material after 8 days at 2-8° C.” value in [6] is recorded as “limited the extent of mAb aggregation”. In series [7], the “reduction potential at the time of harvest of sheared mAb E material” value was “no reduction potential”.
